Experimental data published in paper PMC8911025, “Design, Synthesis, and Biological Evaluation of New Azulene-Containing Chalcones” (Materials, 2022).
Values after ≈ are worked out from the molar mass of the structure shown.

Legend:
S. aureus [1] = system: S. aureus; design: method as in PMID 15801857, PMID 19275612, PMID 15142563; details: literature chalcones Nr. Crtl. 1-38 of Table 7; cited from earlier work
S. aureus [2] = assay: Known antibacterial activity of literature chalcones used for QSAR; type: cell-based, Staphylococcus aureus; details: Aexp = 0.1 + log (k/MIC), k = 1.250
Experimental: The QSAR studies were carried out on 48 chalcones, including 10 synthesized azulenyl-chalcones, in order to identify the physicochemical parameter responsible for their antimicrobial activity against Staphylococcus aureus. The geometry optimization of the molecules was completed using PCModel and MOPAC programs. The descriptors were calculated using MOPAC, PRECLAV, and DRAGON software, and the descriptors and QSAR equations were selected using the PRECLAV algorithm. The best QSAR model was chosen based on the statistical parameters such as the square of the correlation coefficient (r^2), the Fischer’s value of significance (F), and the standard error of estimate(s).
Quantitative structure−activity relationship (QSAR) studies involving 38 chalcone derivatives (Table 7) with known antibacterial activity against S. aureus were developed. These studies were based upon observed activity and molecular descriptors. […] Two QSAR studies were performed: (i) one in which all 48 molecules were included in the calibration set and (ii) another with an external validation test. For the latter, 10 molecules were randomly chosen to be part of the validation test, whereas the rest were part of the calibration set. The result of the external validation depends strongly, among other things, on the procedures for the extraction of the calibration and validation sets from the initial database.

Escherichia coli = assay: Antibiofilm activity (crystal violet, A490); type: cell-based; details: biofilm, read-out: MBEC
Experimental: (§1) The effect of the chalcones on the biofilm formation was evaluated after the determination of the MICs. Briefly, the plates were emptied, washed to remove the nonadherent cells, fixed with methanol, and stained with crystal violet. The antibiofilm activity was determined after adding 33% acetic acid solution by measuring the absorbance at 490 nm, and the results are listed in Table 6.
(§2) The azulene-chalcone derivatives were tested for their ability to affect biofilm formation since 80% of the world’s microbial biomass is found in the biofilm state. The most efficient compound was again chalcone 6 with MBEC of 0.156–0.625 mg/mL (Table 6).

Candida parapsilosis = assay: Antibiofilm activity (crystal violet, A490); type: cell-based; details: Lodderomyces parapsilosis, biofilm, read-out: MBEC
Experimental: as §1, §2

Staphylococcus aureus = assay: Antibiofilm activity (crystal violet, A490); type: cell-based; details: biofilm, read-out: MBEC
Experimental: as §1, §2

Pseudomonas aeruginosa = assay: Antibiofilm activity (crystal violet, A490); type: cell-based; details: biofilm, read-out: MBEC
Experimental: as §1, §2

[3] = system: Staphylococcus aureus ATCC 25923; assay: MIC, binary serial dilution in 96-well plates; type: cell-based
Experimental: (§3) The antimicrobial activity of all compounds was assessed on Gram-positive bacteria (Staphylococcus aureus ATCC 25923), Gram-negative bacteria (Escherichia coli ATCC 25922, Pseudomonas aeruginosa ATCC 27853), and fungi (Candida parapsilosis ATCC 22019) using quantitative binary serial dilution method in 96-well plates. The negative control was represented by wells with culture medium, while positive control was the microbial strain in broth. Briefly, binary serial dilutions of the compounds performed in 100 μL of broth were seeded with microbial inoculum of 10^6 colony forming units (CFU)/mL and incubated for 24 h at 37 °C. […] Due to the fact that the obtained compounds were colored, after the incubation of the 96-well plates, from each well, 10 µL were seeded on agar plates (Plate Count Agar) to determine the inhibitory concentration. The same value of the inhibitory concentration was obtained in repeated experiments.
(§4) The antibacterial effect of the azulene moiety introduced in the chalcone structure was investigated against Gram-positive (Staphylococcus aureus ATCC 25923) and Gram-negative (Escherichia coli ATCC 25922, Pseudomonas aeruginosa ATCC 27853) bacteria, while the antifungal effect was tested against Candida parapsilosis ATCC 22019. To our knowledge, the antibacterial activity of azulene-containing chalcone compounds has not been reported previously; moreover, this is the first investigation of the biological properties of azulene-containing chalcones in general. The results expressed in terms of minimum inhibitory concentration (MIC) were determined by in vitro screening of the antimicrobial properties using the broth microdilution method and are summarized in Table 5.

[4] = system: Pseudomonas aeruginosa ATCC 27853; assay: MIC, binary serial dilution in 96-well plates; type: cell-based; details: ATCC27853; Pseudomonas aeruginosa ATCC 27853, 24 h at 37 °C
Experimental: as §3, §4

[5] = system: Escherichia coli ATCC 25922; assay: MIC, binary serial dilution in 96-well plates; type: cell-based; details: ATCC25922; Escherichia coli ATCC 25922, 24 h at 37 °C
Experimental: as §3, §4

[6] = Cell viability assay (CellTiter Glo); type: cell-based; details: human; HEp-2 cells, 48 h, CellTiter Glo; read-out: IC50 (50% cytotoxic concentration)
Experimental: To assess the toxicity of the azulene-containing chalcones, the adherent cell line HEp-2 (American Cell Type Collection [ATCC] CCL-23^TM) was used.
In order to estimate the cytotoxicity of the compounds, HEp-2 cells (American Cell Type Collection (ATCC) CCL-23) were exposed to the azulene-containing chalcones at concentrations of 200, 100, 50, and 25 μg/mL and evaluated using CellTiter Glo kit (Promega, Madison, WI, USA) assay. The results presented in Figure 3 are expressed as viability percentages versus control.

[7] = system: Candida parapsilosis ATCC 22019; assay: MIC (antifungal), binary serial dilution in 96-well plates; type: cell-based; details: Lodderomyces parapsilosis, ATCC22019; Candida parapsilosis ATCC 22019, 24 h at 37 °C
Experimental: as §3, §4
We further tested the azulene-containing chalcone compounds for antifungal activity against Candida parapsilosis ATCC 22019.

Structure (SMILES)	MIC (S. aureus [1]) [µg/mL]	Aexp (S. aureus [2])	further results
O=C(O)c1ccc(C(=O)/C=C/c2ccccc2C(F)(F)F)cc1 [Nr. Crtl. 4]	300 (≈ 937 µM)	0.720	–
O=C(/C=C/c1cccc(Br)c1)c1ccc(O)cc1 [Nr. Crtl. 33]	20 (≈ 66 µM)	1.896	–
O=C(O)c1ccc(C(=O)/C=C/c2cccc(Br)c2)cc1 [Nr. Crtl. 24]	75 (≈ 226 µM)	1.322	–
O=C(/C=C/c1cccc(Cl)c1Cl)c1ccc(O)cc1 [Nr. Crtl. 34]	15 (≈ 51.2 µM)	2.021	–
O=C(/C=C/c1ccc(O)c(O)c1)c1ccc(Cl)cc1 [Nr. Crtl. 22]	125 (≈ 455 µM)	1.100	–
O=C(/C=C/c1cc(C(F)(F)F)cc(C(F)(F)F)c1)c1ccc(O)cc1 [Nr. Crtl. 36]	3 (≈ 8.33 µM)	2.720	–
O=C(O)c1ccc(C(=O)/C=C/c2ccc(C(F)(F)F)cc2)cc1 [Nr. Crtl. 11]	150 (≈ 468 µM)	1.021	–
COc1cc(/C=C/C(=O)c2ccc(Cl)cc2)ccc1O [Nr. Crtl. 9]	250 (≈ 866 µM)	0.799	–
COc1ccc(/C=C/C(=O)c2ccc(Cl)cc2)cc1O [Nr. Crtl. 26]	62.5 (≈ 216 µM)	1.401	–
O=C(/C=C/c1c(Cl)ccc(Cl)c1Cl)c1ccc(O)cc1 [Nr. Crtl. 35]	10 (≈ 30.5 µM)	2.197	–
O=C(/C=C/c1ccccc1O)c1ccccc1 [Nr. Crtl. 27]	62.5 (≈ 279 µM)	1.401	–
O=C(/C=C/c1ccc(Cl)cc1Cl)c1ccc(O)cc1F [Nr. Crtl. 32]	20 (≈ 64.3 µM)	1.896	–
COc1cc(/C=C/C(=O)c2ccc(Cl)cc2)cc(OC)c1O [Nr. Crtl. 2]	500 (≈ 1570 µM)	0.498	–
O=C(/C=C/c1cc(Br)c2cccccc1-2)c1ccc2cccccc1-2 [Compound 8, (E)-1-(Azulen-1-yl)-3-(3-bromoazulen-1-yl)prop-2-en-1-one]	–	–	minimal effective concentration (Escherichia coli): 625 µg/mL; minimal effective concentration (Candida parapsilosis): 312 µg/mL; minimal effective concentration (Staphylococcus aureus): 1250 µg/mL; minimal effective concentration (Pseudomonas aeruginosa): 1250 µg/mL; MIC ([3]; ATCC25923, Staphylococcus aureus ATCC 25923, 24 h at 37 °C): 1250 µg/mL (≈ 3230 µM); Aexp ([3]; Aexp = 0.1 + log (k/MIC), k = 1.250, compounds synthesized herein): 0.100; MIC [4]: 625 µg/mL (≈ 1610 µM); MIC [5]: 625 µg/mL (≈ 1610 µM); IC50 at 48 h [6]: 93.5 µg/mL (≈ 242 µM); MIC [7]: 312 µg/mL (≈ 806 µM)
O=C(O)c1ccc(C(=O)/C=C/c2cccc([N+](=O)[O-])c2)cc1 [Nr. Crtl. 5]	300 (≈ 1010 µM)	0.720	–
O=C(O)c1ccc(C(=O)/C=C/c2ccccc2Br)cc1 [Nr. Crtl. 14]	150 (≈ 453 µM)	1.021	–
O=C(/C=C/c1cccc(O)c1)c1ccccc1 [Nr. Crtl. 6]	250 (≈ 1110 µM)	0.799	–
O=C(O)c1ccc(C(=O)/C=C/c2cc(C(F)(F)F)cc(C(F)(F)F)c2)cc1 [Nr. Crtl. 37]	2 (≈ 5.15 µM)	2.896	–
O=C(O)c1ccc(C(=O)/C=C/c2cc(Br)cc(Br)c2)cc1 [Nr. Crtl. 38]	2 (≈ 4.88 µM)	2.896	–
COc1cccc(/C=C/C(=O)c2ccccc2)c1O [Nr. Crtl. 18]	125 (≈ 492 µM)	1.100	–
